Drawing on paper PMC7594077, “An Alcohol Dehydrogenase 3 (ADH3) from Entamoeba histolytica Is Involved in the Detoxification of Toxic Aldehydes” (Microorganisms, 2020), this text covers Km and stoichiometry N for three molecules.

For test [1], the target named is T1, recEhADH3B^b (Entamoeba histolytica, UniProt C4M6R1).
T1 construct: gene EHI_088020; E. coli BL21(DE3); dimer; EDTA-stripped and reloaded with Ni2+
T1 sequence (C4M6R1 1-382): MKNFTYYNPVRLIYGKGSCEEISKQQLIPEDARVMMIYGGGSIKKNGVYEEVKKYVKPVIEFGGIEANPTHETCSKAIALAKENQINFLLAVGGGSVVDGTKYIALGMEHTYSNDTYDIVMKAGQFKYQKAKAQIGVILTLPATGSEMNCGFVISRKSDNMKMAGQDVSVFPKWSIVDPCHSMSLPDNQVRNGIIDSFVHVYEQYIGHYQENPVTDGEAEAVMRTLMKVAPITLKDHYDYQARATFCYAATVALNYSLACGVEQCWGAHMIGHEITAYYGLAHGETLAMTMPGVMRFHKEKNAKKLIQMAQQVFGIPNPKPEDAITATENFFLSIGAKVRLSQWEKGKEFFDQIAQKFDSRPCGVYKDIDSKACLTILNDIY
Description: NADPH oxidation at […] nm, Michaelis-Menten. The test is classed as biochemical. Particulars: 0.7 mM NADPH, pH 7.4, EDTA-treated and dialysed enzyme incubated with 1 mM Ni2+; reduction direction.

Test [2] addresses recombinant EhADH3B^b (alcohol dehydrogenase 3B of Entamoeba histolytica) (Entamoeba histolytica). Description: SEC; HiLoad 16/60 Superdex prep grade column; 50 mM Tris, 150 mM NaCl, 10 mM EDTA, 1 mM DTT, 10% glycerol, pH 8.0; elution peak at 82 mL compared with standard proteins.

For `CC=O` [acetaldehyde], the Km in test [1] is 30.84 [95% CI 16.21–60.54] mM.

For `C=O` [formaldehyde], in test [1], the Km was 63.7 [95% CI 25.3 to 267.4] mM.

On to “recombinant EhADH3B^b (alcohol dehydrogenase 3B of Entamoeba histolytica) (enzyme)”, for which the stoichiometry N in test [2] worked out at 2.
